This passage reports IC50 results from patent US11912703B2, “6-azaindole compounds” (BRISTOL-MYERS SQUIBB COMPANY, priority 2017, dated 2024).

The IC50 is the concentration that inhibits the measured activity by half.

For assay [1], the target named is human TLR7 (Homo sapiens (Human), UniProt Q9NYK1). Nature of the assay: TLR7 inhibition reporter assay (HEK-Blue SEAP). Format: cell-based. The following applies: HEK-Blue cells overexpressing human TLR7, gardiquimod 7.5 μM stimulation. (Reporter assays use an easily measured gene product as a stand-in for the process of interest.)
Assay [2] deals with human TLR8 (Homo sapiens (Human), UniProt Q9NR97). In words: TLR8 inhibition reporter assay (HEK-Blue SEAP).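 Note: SEAP driven by IFN-β minimal promoter with five NF-κB and AP-1 sites, compounds tested 0.05 nM to 50 µM, 22 h incubation, inhibition relative to agonist plus DMSO wells.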 The following applies: read-out: TLR8 IC50; HEK-Blue cells overexpressing human TLR8, R848 15.9 μM stimulation, SEAP reporter.
Assay [3] deals with human TLR9 (Homo sapiens (Human), UniProt Q9NR96). In words: TLR9 inhibition reporter assay (HEK-Blue SEAP).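 Note: SEAP driven by IFN-β minimal promoter carrying five NF-κB and AP-1 sites, 22 h at 37 °C, compounds 0.05 nM–50 µM, inhibition scaled between agonist-plus-DMSO and reference-inhibitor wells.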 The following applies: read-out: TLR9 IC50; HEK-Blue cells overexpressing human TLR9, ODN2006 5 nM stimulation, SEAP reporter.
Sequence of human TLR9 (Q9NR96 26-1032): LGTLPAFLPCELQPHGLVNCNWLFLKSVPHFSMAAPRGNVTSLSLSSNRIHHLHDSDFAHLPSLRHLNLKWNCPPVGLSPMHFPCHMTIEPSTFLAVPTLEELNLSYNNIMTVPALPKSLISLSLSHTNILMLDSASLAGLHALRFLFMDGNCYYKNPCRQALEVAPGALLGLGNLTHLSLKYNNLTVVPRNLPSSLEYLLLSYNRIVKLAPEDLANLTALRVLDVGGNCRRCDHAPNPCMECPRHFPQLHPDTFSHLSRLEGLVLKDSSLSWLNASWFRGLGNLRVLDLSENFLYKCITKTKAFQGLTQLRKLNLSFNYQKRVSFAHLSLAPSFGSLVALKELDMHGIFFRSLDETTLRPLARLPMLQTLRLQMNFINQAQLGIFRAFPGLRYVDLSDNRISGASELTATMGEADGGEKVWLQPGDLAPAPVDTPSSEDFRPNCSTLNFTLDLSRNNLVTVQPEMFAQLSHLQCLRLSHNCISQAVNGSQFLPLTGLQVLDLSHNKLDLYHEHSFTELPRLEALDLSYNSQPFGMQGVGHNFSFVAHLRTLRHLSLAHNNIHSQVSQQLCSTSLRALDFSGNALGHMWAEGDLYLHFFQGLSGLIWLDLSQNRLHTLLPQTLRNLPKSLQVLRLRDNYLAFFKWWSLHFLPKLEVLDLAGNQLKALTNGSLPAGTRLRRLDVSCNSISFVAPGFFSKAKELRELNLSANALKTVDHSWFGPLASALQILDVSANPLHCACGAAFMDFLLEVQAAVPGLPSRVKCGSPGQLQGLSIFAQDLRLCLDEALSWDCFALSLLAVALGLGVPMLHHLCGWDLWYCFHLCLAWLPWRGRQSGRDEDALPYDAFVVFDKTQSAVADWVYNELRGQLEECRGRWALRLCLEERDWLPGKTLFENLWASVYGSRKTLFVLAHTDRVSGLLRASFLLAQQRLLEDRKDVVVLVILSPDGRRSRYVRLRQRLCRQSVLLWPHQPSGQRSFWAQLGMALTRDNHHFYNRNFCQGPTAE

Sequence of human TLR7 (Q9NYK1 27-1049): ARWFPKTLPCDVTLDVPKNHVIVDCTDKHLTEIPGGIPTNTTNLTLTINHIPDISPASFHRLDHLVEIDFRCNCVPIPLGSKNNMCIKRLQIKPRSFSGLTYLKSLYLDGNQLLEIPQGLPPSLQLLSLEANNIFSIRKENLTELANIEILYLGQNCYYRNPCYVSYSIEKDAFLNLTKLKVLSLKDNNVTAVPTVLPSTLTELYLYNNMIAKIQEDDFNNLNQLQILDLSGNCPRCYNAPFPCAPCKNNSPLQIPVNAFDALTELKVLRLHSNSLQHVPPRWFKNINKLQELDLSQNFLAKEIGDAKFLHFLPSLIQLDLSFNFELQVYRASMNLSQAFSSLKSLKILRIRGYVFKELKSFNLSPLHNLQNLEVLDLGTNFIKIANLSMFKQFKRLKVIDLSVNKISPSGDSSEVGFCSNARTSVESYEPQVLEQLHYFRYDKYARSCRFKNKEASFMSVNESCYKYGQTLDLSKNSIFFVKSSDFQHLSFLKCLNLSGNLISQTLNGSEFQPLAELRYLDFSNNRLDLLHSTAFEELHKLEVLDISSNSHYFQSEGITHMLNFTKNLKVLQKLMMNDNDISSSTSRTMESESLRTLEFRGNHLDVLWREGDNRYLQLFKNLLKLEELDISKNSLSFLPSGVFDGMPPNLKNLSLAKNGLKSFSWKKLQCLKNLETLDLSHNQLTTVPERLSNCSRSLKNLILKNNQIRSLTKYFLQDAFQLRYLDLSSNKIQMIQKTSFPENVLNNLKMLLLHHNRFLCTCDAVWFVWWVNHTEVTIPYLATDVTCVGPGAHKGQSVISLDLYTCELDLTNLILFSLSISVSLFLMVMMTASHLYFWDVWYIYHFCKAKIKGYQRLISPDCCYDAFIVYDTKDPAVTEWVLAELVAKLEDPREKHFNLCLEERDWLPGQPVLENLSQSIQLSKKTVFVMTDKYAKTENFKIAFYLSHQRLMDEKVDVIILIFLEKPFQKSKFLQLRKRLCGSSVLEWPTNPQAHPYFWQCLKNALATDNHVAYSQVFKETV
Sequence of human TLR8 (Q9NR97 27-1041): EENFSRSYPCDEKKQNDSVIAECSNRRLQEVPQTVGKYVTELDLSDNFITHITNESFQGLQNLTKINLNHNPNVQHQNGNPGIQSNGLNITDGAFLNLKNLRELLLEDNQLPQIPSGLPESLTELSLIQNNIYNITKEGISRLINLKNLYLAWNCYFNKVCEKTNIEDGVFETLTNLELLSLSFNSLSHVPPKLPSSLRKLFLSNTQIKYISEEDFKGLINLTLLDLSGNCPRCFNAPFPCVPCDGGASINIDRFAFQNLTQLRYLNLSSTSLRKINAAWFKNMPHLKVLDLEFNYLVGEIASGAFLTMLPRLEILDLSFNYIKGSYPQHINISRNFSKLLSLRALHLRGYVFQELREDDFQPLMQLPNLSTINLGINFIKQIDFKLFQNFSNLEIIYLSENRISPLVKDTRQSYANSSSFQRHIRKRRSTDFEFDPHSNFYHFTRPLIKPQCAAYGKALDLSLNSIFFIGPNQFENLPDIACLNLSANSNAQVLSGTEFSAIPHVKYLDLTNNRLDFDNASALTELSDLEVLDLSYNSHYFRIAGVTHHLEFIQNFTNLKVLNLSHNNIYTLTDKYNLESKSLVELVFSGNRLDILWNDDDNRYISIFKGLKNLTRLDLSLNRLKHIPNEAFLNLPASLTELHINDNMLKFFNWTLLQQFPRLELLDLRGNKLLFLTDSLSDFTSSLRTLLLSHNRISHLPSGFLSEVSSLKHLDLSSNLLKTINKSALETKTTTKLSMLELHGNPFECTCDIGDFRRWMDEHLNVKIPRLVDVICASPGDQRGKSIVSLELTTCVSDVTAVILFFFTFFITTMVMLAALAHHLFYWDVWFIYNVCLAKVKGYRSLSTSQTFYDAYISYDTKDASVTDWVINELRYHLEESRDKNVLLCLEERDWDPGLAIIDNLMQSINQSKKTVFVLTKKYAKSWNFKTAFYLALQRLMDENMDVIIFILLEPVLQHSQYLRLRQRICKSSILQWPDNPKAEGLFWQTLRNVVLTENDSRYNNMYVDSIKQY

With `COc1cc(-c2[nH]c3cnc(N4CCC(N5CC6(COC6)C5)CC4)c(C)c3c2C(C)C)cn2ncnc12` [Example 139], the IC50 stood at 1.1 nM in assay [1], 1 nM in assay [2] and 1030 nM in assay [3].

For the compound `Cc1c(N2CCC(NC3COC3)CC2)ncc2[nH]c(-c3cc(C)c4ncnn4c3)c(C(C)C)c12` [Example 140], the values for the IC50 in assay [1], in assay [2] and in assay [3] were 0.53 nM, 1.4 nM and 3050 nM, respectively.

With `COc1cc(-c2[nH]c3cnc(C4CCC(N5CC6(COC6)C5)C4)cc3c2C(C)C)cn2ncnc12` (stereo not drawn) [Example 141], the IC50 in assay [1] is 27 nM; in assay [2], 25 nM; in assay [3], 482 nM.

Turning to `Cc1c(-c2[nH]c3cnc(C4CCC(N5CC6(COC6)C5)CC4)c(C)c3c2C(C)C)cn2ncnc2c1C` (stereo not drawn) [Example 142], the IC50 was determined as 13 nM in assay [1], 39 nM in assay [2] and 282 nM in assay [3].

As to `CCN(C)C1CCC(c2ncc3[nH]c(-c4cn5ncnc5c(C)c4C)c(C(C)C)c3c2C)CC1` (stereo not drawn) [Example 143], the figures for the IC50 in assay [1], in assay [2] and in assay [3] were 33 nM, 33 nM and 683 nM, respectively.

As for `COc1cc(-c2[nH]c3cnc(C4CCC(NCC(C)(C)C)C4)cc3c2C(C)C)cn2ncnc12` (stereo not drawn) [Example 144], the figures for the IC50 in assay [1], in assay [2] and in assay [3] were 14 nM, 14 nM and 1250 nM, respectively.

On to `Cc1c(-c2[nH]c3cnc(N4CCC(NC5COC5)CC4)c(F)c3c2C(C)C)cn2ncnc2c1C` [Example 146], for which the results for the IC50 in assay [1], in assay [2] and in assay [3] were 1.1 nM, 0.46 nM and 6660 nM, respectively.

Turning to `COc1cc(-c2[nH]c3cnc(N4CCC(NCC5(C)COC5)CC4)c(C)c3c2C(C)C)cn2ncnc12` [Example 147], the IC50 in assay [1] is 0.62 nM; in assay [2], 0.27 nM; in assay [3], 2060 nM.

Turning to `Cc1c(N2CCC(NC34CC(C3)C4)CC2)ncc2[nH]c(-c3cc(C)c4ncnn4c3)c(C(C)C)c12` [Example 148], the results for the IC50 in assay [1], in assay [2] and in assay [3] were 1.1 nM, 1.7 nM and 1170 nM, respectively.

For `Cc1cc(-c2[nH]c3cnc(C4CCN(CCS(C)(=O)=O)CC4)c(F)c3c2C(C)C)cn2ncnc12` [Example 149], the IC50 was determined as 3.6 nM in assay [1], 5.1 nM in assay [2] and 13100 nM in assay [3].

Turning to `CNC(=O)CN1CCC(c2ncc3[nH]c(-c4cc(C)nc(C)c4)c(C(C)C)c3c2F)CC1` [Example 150], the 50% inhibitory concentration (IC50) was found to be 3.4 nM in assay [1], 5.3 nM in assay [2] and 6060 nM in assay [3].

Take `Cc1cc(-c2[nH]c3cnc(C4CCNCC4)c(F)c3c2C(C)C)cc(C)n1` [Example 151]: the IC50 was 1.1 nM in assay [1], 4.4 nM in assay [2] and 768 nM in assay [3].

Regarding `Cc1cc(-c2[nH]c3cnc(C4CCN(CC(N)=O)CC4)c(F)c3c2C(C)C)cc(C)n1` [Example 152], the half-inhibitory concentration (IC50) in assay [1] amounted to 5 nM; in assay [2], 6.4 nM; in assay [3], 4090 nM.

For the compound `Cc1cc(-c2[nH]c3cnc(C4CCN(CC(=O)N(C)C)CC4)c(F)c3c2C(C)C)cc(C)n1` [Example 153], the IC50 was determined as 8.8 nM in assay [1], 5.2 nM in assay [2] and 3830 nM in assay [3].

Take `COc1cc(-c2[nH]c3cnc(N4CCN(C(=O)CN(C)C)CC4)c(C)c3c2C(C)C)cn2ncnc12` [Example 154]: the figures for the IC50 in assay [1], in assay [2] and in assay [3] were 4 nM, 4.4 nM and 1220 nM, respectively.

In the case of `COc1cc(-c2[nH]c3cnc(N4CCN(CC(N)=O)CC4)c(C)c3c2C(C)C)cn2ncnc12` [Example 155], the values for the IC50 in assay [1], in assay [2] and in assay [3] were 7.3 nM, 5 nM and 6310 nM, respectively.

On to `COc1cc(-c2[nH]c3cnc(N4CCC(NCC(C)(C)O)CC4)c(F)c3c2C(C)C)cn2ncnc12` [Example 156], for which the IC50 in assay [1] is 0.79 nM; in assay [2], 0.26 nM; in assay [3], 6430 nM.

Regarding `COc1cc(-c2[nH]c3cnc(N4CCC(NC(C)C)CC4)c(F)c3c2C(C)C)cn2ncnc12` [Example 157], the half-inhibitory concentration (IC50) in assay [1] came to 0.8 nM; in assay [2] it was 0.51 nM; in assay [3], 4180 nM.

As to `Cc1cc(-c2[nH]c3cnc(N4CCC(N(C)CC(N)=O)CC4)c(F)c3c2C(C)C)cn2ncnc12` [Example 158], the IC50 in assay [1] came out at 1.4 nM; in assay [2] it was 2.1 nM; in assay [3], 17500 nM.

Take `COc1cc(-c2[nH]c3cnc(C4CCC(NC(C)C)CC4)c(F)c3c2C(C)C)cn2ncnc12` (stereo not drawn) [Example 159]: the values for the IC50 in assay [1], in assay [2] and in assay [3] were 3.4 nM, 4.5 nM and 455 nM, respectively.

For `COc1cc(-c2[nH]c3cnc(C4CCC(N5CC6(COC6)C5)CC4)c(F)c3c2C(C)C)cn2ncnc12` (stereo not drawn) [Example 161], the IC50 stood at 2.4 nM in assay [1], 4.6 nM in assay [2] and 293 nM in assay [3].

Consider `COc1cc(-c2[nH]c3cnc(C4CCC(NCC(C)(C)C)CC4)c(F)c3c2C(C)C)cn2ncnc12` (stereo not drawn) [Example 162], for which the IC50 came to 1.3 nM in assay [1], 1 nM in assay [2] and 2150 nM in assay [3].

For `CCN(C)C1CCC(c2ncc3[nH]c(-c4cc(C)c5ncnn5c4)c(C(C)C)c3c2F)CC1` (stereo not drawn) [Example 163], the 50% inhibitory concentration (IC50) in assay [1] is 0.39 nM; in assay [2], 0.87 nM; in assay [3] it was 1320 nM.

For `Cc1cc(-c2[nH]c3cnc(C4CCC(NCC(C)(C)O)CC4)c(F)c3c2C(C)C)cn2ncnc12` (stereo not drawn) [Example 164], the IC50 in assay [1] is 6.2 nM; in assay [2], 4.6 nM; in assay [3], 1800 nM.

As for `Cc1c(-c2[nH]c3cnc(C4CCC(N5CCC5)CC4)c(F)c3c2C(C)C)cn2ncnc2c1C` (stereo not drawn) [Example 165], the IC50 in assay [1] was determined as 0.4 nM; in assay [2] it was 0.62 nM; in assay [3], 905 nM.

On to `Cc1c(-c2[nH]c3cnc(N4CCC(NC(C)C)CC4)c(F)c3c2C(C)C)cn2ncnc2c1C` [Example 166], for which the figures for the IC50 in assay [1], in assay [2] and in assay [3] were 0.41 nM, 0.18 nM and 3340 nM, respectively.

As to `Cc1c(-c2[nH]c3cnc(N4CCC(NCC(C)(C)C)CC4)c(F)c3c2C(C)C)cn2ncnc2c1C` [Example 167], the half-maximal inhibitory concentration (IC50) in assay [1] is 2.6 nM; in assay [2], 0.49 nM; in assay [3], 4330 nM.

As to `Cc1c(-c2[nH]c3cnc(C4CCC(N(C)C(C)C)CC4)c(F)c3c2C(C)C)cn2ncnc2c1C` (stereo not drawn) [Example 168], the IC50 in assay [1] was 3.6 nM; in assay [2], 4.5 nM; in assay [3] it was 17500 nM.

As for `COc1cc(-c2[nH]c3cnc(N4CCC(NCC(C)(C)C)CC4)c(C)c3c2C(C)C)cn2ncnc12` [Example 169], the IC50 was determined as 0.36 nM in assay [1], 0.33 nM in assay [2] and 1730 nM in assay [3].

For the compound `Cc1c(N2CCC(NCC3(C)COC3)CC2)ncc2[nH]c(-c3cc(C)c4ncnn4c3)c(C(C)C)c12` [Example 170], the IC50 in assay [1] is 0.42 nM; in assay [2], 0.71 nM; in assay [3], 2290 nM.

As to `Cc1c(-c2[nH]c3cnc(C4CCC(NCC5(C)COC5)CC4)c(F)c3c2C(C)C)cn2ncnc2c1C` (stereo not drawn) [Example 171], the figures for the concentration for half-maximal inhibition (IC50) in assay [1], in assay [2] and in assay [3] were 0.43 nM, 0.12 nM and 1960 nM, respectively.

`Cc1c(-c2[nH]c3cnc(C4CCC(NCC5(C)COC5)CC4)c(F)c3c2C(C)C)cn2ncnc2c1C` (stereo not drawn) [Example 172]: the figures for the IC50 in assay [1], in assay [2] and in assay [3] were 4.4 nM, 0.75 nM and 2650 nM, respectively.

On to `COC(C)(C)CNC1CCN(c2ncc3[nH]c(-c4cn5ncnc5c(C)c4C)c(C(C)C)c3c2C)CC1` [Example 173], for which the IC50 in assay [1] came to 1.5 nM; in assay [2], 0.54 nM; in assay [3], 653 nM.

On to `Cc1c(-c2[nH]c3cnc(C4CCC(NC5COC5)CC4)c(F)c3c2C(C)C)cn2ncnc2c1C` (stereo not drawn) [Example 174], for which the values for the concentration for half-maximal inhibition (IC50) in assay [1], in assay [2] and in assay [3] were 0.78 nM, 0.67 nM and 7720 nM, respectively.

On to `Cc1c(-c2[nH]c3cnc(C4CCC(NC[C@@H](F)C(C)(C)O)CC4)c(F)c3c2C(C)C)cn2ncnc2c1C` (stereo partly drawn) [Example 175], for which the figures for the IC50 in assay [1], in assay [2] and in assay [3] were 23 nM, 6.4 nM and 7940 nM, respectively.

Regarding `COc1cc(-c2[nH]c3cnc(C4CCC(NC5CCOCC5)CC4)c(C)c3c2C(C)C)cn2ncnc12` (stereo not drawn) [Example 176], the half-inhibitory concentration (IC50) was 16 nM in assay [1], 18 nM in assay [2] and 325 nM in assay [3].

On to `CCN(C)C1CCC(c2cc3c(C(C)C)c(-c4cc(OC)c5ncnn5c4)[nH]c3cn2)C1` (stereo not drawn) [Example 177], for which the IC50 in assay [1] was 8.7 nM; in assay [2] it was 4 nM; in assay [3] it was 549 nM.

In the case of `COc1cc(-c2[nH]c3cnc(C4CCC(NC5COC5)C4)cc3c2C(C)C)cn2ncnc12` (stereo not drawn) [Example 178], the IC50 in assay [1] turned out to be 7 nM; in assay [2], 2.7 nM; in assay [3], 321 nM.

`COc1cc(-c2[nH]c3cnc(C4CCC(NCC(C)(C)OC)C4)cc3c2C(C)C)cn2ncnc12` (stereo not drawn) [Example 179]: the IC50 in assay [1] was 20 nM; in assay [2] it was 7 nM; in assay [3], 486 nM.

As for `CNC(=O)CN1CCC(c2ncc3[nH]c(-c4cc(C)c5ncnn5c4)c(C(C)C)c3c2F)CC1` [Example 181], the IC50 in assay [1] was 1.5 nM; in assay [2], 5 nM; in assay [3], 6550 nM.

Turning to `Cc1cc(-c2[nH]c3cnc(C4CCN(C5COC5)CC4)c(F)c3c2C(C)C)cn2ncnc12` [Example 182], the IC50 stood at 3.8 nM in assay [1], 11 nM in assay [2] and 18800 nM in assay [3].

As for `COCCN1CCC(c2ncc3[nH]c(-c4cc(C)c5ncnn5c4)c(C(C)C)c3c2F)CC1` [Example 183], the IC50 was found to be 1.8 nM in assay [1], 3.4 nM in assay [2] and 2450 nM in assay [3].

For `Cc1cc(-c2[nH]c3cnc(C4CCNCC4)c(F)c3c2C(C)C)cn2ncnc12` [Example 184], the IC50 was found to be 1.9 nM in assay [1], 7.9 nM in assay [2] and 1870 nM in assay [3].
